Data from patent US20230039836A1, “AROMATIC SULPHONAMIDES DERIVATIVES THAT INHIBITS PDI A3, THEIR SYNTHESIS AND USE” (Uniwersytet Jagiellonski, priority 2020, published 2023).

Key:
[1] = molecular target: T1, PDI A1 (Homo sapiens, UniProt P07237); assay: Insulin turbidometric assay, inhibition of PDI A1; format: biochemical; conditions: insulin reduction, turbidity at 650 nm, 60 min incubation at 37° C.; read-out: Inhibition of PDI A1 (EC 50)
T1 construct: purchased Mybiosource; host or cells: E. coli
T1 sequence (P07237 18-508, species assumed): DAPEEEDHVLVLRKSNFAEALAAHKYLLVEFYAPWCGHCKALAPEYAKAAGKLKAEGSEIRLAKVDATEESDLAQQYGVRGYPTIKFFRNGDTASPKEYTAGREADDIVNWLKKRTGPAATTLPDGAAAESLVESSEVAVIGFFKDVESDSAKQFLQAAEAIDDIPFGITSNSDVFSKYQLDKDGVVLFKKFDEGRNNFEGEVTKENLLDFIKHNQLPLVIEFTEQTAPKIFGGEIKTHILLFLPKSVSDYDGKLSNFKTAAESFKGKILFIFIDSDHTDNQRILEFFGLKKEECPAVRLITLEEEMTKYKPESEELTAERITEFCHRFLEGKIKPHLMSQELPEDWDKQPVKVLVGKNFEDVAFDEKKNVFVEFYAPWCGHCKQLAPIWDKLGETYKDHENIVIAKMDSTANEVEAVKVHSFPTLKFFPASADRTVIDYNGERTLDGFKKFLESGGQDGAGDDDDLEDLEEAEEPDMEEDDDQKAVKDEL
Experimental: The inhibitory effects compounds of invention on activity of PDI A1 was assess based on the insulin turbidometric assay. Enzymatic activity of PDIA1 was confirmed by measuring the turbidity increase at 650 nm due to insulin reduction. The assay mixture was prepared by addition 10 ug/ml PDIA1 (E.coli recombinant protein; Mybiosource), 0.1 mM phosphate buffer (pH7.6), 1 mM EDTA, 0.087 mM DTT and with or without tested compound and was incubated for 60 min, at 37° C. Reaction was started by addition insulin and DTT. Final concentration of insulin and DTT in assay mixture was 0.15 mM and 0.174 mM, respectively. Turbidity was detected at 650 nm against reference samples without PDI A1s. The measurements were performed at 650 nm using 120-s recordings.

[2] = tested on: MDA-MB-231 (human mammary breast adenocarcinoma); assay: MTT antiproliferative assay, 48 h; format: cell-based; conditions: for IC50: Homo sapiens, MDA-MB-231, 48-hour exposition, read-out: Cytotoxicity, IC50, µM MDA-MB-231
Experimental: (§1) About 2000-4000 cells per well (depending on line nature) were placed in 96-well plates and after 24 h compounds were added to the wells. Untreated cells were used as a control. The plates were incubated for 48 h, 37° C., 5% CO2. The number of surviving cells was determined using 3-(4,5-dimethylthiazol-2-yl)-2,5-diphenyltetrazolinium bromide (MTT). MTT-test: after incubating culture medium was removed and 200 µL fresh medium with 20 µL MTT (2 mg/mL in HBSS) was added in each well of the plate. After incubation (3 hr., 37° C., 5% CO2), the medium with MTT was removed and 200 µL DMSO were added at once to each sample. The samples were tested at 540 nm on Thermo Scientific Multiskan EX microplate photometer. The half-maximal inhibitory concentration (IC50) of each compound was calculated using Graph Pad Prism® 3.0.

[3] = tested on: Caco-2 (human colon adenocarcinoma); assay: MTT antiproliferative assay, 48 h; format: cell-based; conditions: for IC50: Homo sapiens, Caco-2, 48-hour exposition, read-out: Cytotoxicity, IC50, µM CaCo-2
Experimental: as §1

[4] = tested on: HT-1080 (human fibrosarcoma); assay: MTT antiproliferative assay, 48 h; format: cell-based; conditions: 48-hour exposition, read-out: Cytotoxicity, IC50, µM HT-1080
Experimental: as §1

[5] = tested on: MCF-7 (human breast adenocarcinoma, estrogen-positive); assay: MTT antiproliferative assay, 48 h; format: cell-based; conditions: for IC50: Homo sapiens, MCF7, 48-hour exposition, read-out: Cytotoxicity, IC50, µM MCF-7
Experimental: as §1

EC50 [1] [µM]	melting point [°C]	SMILES	IC50 [2] [µM]	IC50 [3] [µM]	IC50 [4] [µM]	IC50 [5] [µM]	Cytotoxicity, IC50, µM MDA-MB-231 ([2]; 48-hour exposition)	Cytotoxicity, IC50, µM CaCo-2 ([3]; 48-hour exposition)	Cytotoxicity, IC50, µM MCF-7 ([5]; 48-hour exposition)
0.34	170 to 172	CNc1ccc2cc(S(=O)(=O)N3CC3C(=O)OC)ccc2c1Cl (stereo not drawn) [Compound C-3393, Methyl 1-[[5-chloro-6-(methylamino)-2-naphthyl]sulfonyl]aziridine-2-carboxylate]	32 ± 4	35 ± 1	0.46 ± 0.04	29 ± 3			
33	197 to 199	CN(C)c1ccc2c(S(=O)(=O)N3CC3C(N)=O)cccc2c1 (stereo not drawn) [Compound C-3459, 1-[[6-(Dimethylamino)-1-naphthyl]sulfonyl]aziridine-2-carboxamide]			> 500		n.e.	n.e.	n.e.
11.2		COC(=O)[C@@H]1CN1S(=O)(=O)c1ccc(C)cc1 (stereo partly drawn) [Compound C-3535, Methyl (2S)-1-(p-tolylsulfonyl)aziridine-2-carboxylate]	107 ± 11	35 ± 7	84 ± 3	81			
29		COC(=O)[C@H]1CN1S(=O)(=O)c1ccc(C)cc1 (stereo partly drawn) [Compound C-3539, Methyl (2R)-1-(p-tolylsulfonyl)aziridine-2-carboxylate]	40 ± 5	23 ± 1	20 ± 1	113 ± 6			
6		COC(=O)[C@@H]1CN1S(=O)(=O)c1cccc2cc(N(C)C)ccc12 (stereo partly drawn) [Compound C-3548, Methyl (2S)-1-[[6-(dimethylamino)-1-naphthyl]sulfonyl]aziridine-2-carboxylate]	57 ± 9	45 ± 13	9.2 ± 1	37 ± 3			
10.6		COC(=O)C1CN1S(=O)(=O)c1cccnc1 (stereo not drawn) [Compound C-3559, Methyl 1-(3-pyridylsulfonyl)aziridine-2-carboxylate]	128 ± 8	260 ± 55	372 ± 23	154 ± 25			
29	147 to 149	NC(=O)C1CN1S(=O)(=O)c1cccnc1 (stereo not drawn) [Compound C-3562, 1-(3-pyridylsulfonyl)aziridine-2-carboxamide]	24 ± 2	36 ± 6	31 ± 2	57 ± 5			
11		COC(=O)[C@H]1CN1S(=O)(=O)c1cccc2cc(N(C)C)ccc12 (stereo partly drawn) [Compound C-3570, Methyl (2R)-1-[[6-(dimethylamino)-1-naphthyl]sulfonyl]aziridine-2-carboxylate]	14 ± 3	13 ± 1	12 ± 1	29 ± 2			

SMILES	EC50 [1] [µM]	melting point [°C]	IC50 [2] [µM]	IC50 [3] [µM]	IC50 [4] [µM]	IC50 [5] [µM]	Cytotoxicity, IC50, µM MDA-MB-231 ([2]; 48-hour exposition)	Cytotoxicity, IC50, µM CaCo-2 ([3]; 48-hour exposition)	Cytotoxicity, IC50, µM MCF-7 ([5]; 48-hour exposition)
COC(=O)C1CN1S(=O)(=O)c1ccc2c(C=O)c(N(C)C)ccc2c1 (stereo not drawn) [Compound C-3390, Methyl 1-[[6-(dimethylamino)-5-formyl-2-naphthyl]sulfonyl]aziridine-2-carboxylate]	0.6		18 ± 0.1	11 ± 2	7.9 ± 0.9	20 ± 0.3			
